Values of other authors, collected in EP3957303A1, “PHARMACEUTICAL COMBINATION PREPARATION COMPRISING EZETIMIBE AND LOSARTAN” (Hanmi Pharm. Co., Ltd., priority 2019, dated 2020).

O=C1[C@H](CC[C@H](O)c2ccc(F)cc2)[C@@H](c2ccc(O)cc2)N1c1ccc(F)cc1 [Ezetimibe, 1-(4-fluorophenyl)-3(R)-[3-(4-fluorophenyl)-3(S)-hydroxypropyl]-4(S)-(4-hydroxyphenyl)-2-azetidinone]
saturation solubility (under acidic to weakly basic conditions such as body fluids): about 1 ppm | solubility in water (water): practically insoluble in water
